Paper PMC4242290 (Nuclear Receptor Signaling, 2014)
Entries after “also recorded” stand apart in the source; their conditions may differ. Where a name gives a salt, the structure may show the parent alone. *1 amine or outer side, *2 acyl side, *3 side chain or, on linkers, in order; H or OH if unused. Where a SMILES comes first, the peptide text is derived from it. Bridges are numbered along the chain shown (N, C = ends). Roman numbers before positions name the chains, in order. [ ]: non-standard residue; d: D form. Actinocin(9to1) = Cc1c2oc3c(C)ccc(C(=O)[*:1])c3nc-2c(C(=O)[*:2])c(N)c1=O; NMeV = CN[C@H](C(=O)O)C(C)C; Sar = CNCC(=O)O

Assays:
His6-hERβ LBD = His6-hERβ LBD (Homo sapiens, UniProt Q92731); format: binding; details: for DSF primary screen: change in melting temperature of ERβ LBD: 500 µM
His6-hERβ LBD, sequence (Q92731 261-530): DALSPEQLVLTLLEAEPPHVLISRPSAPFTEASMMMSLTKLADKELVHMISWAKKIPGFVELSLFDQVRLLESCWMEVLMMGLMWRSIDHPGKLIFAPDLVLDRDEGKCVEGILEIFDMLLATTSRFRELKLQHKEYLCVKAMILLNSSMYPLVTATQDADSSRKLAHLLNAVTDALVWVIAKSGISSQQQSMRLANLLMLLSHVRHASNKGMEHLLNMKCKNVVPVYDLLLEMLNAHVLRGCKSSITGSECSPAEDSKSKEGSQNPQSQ

ERβ [1] = target: T1, ERβ (Homo sapiens, UniProt Q92731); format: binding; details: for β-selectivity (fold): IC50 for ERα divided by IC50 for ERβ, from FP
T1 sequence (Q92731 whole entry): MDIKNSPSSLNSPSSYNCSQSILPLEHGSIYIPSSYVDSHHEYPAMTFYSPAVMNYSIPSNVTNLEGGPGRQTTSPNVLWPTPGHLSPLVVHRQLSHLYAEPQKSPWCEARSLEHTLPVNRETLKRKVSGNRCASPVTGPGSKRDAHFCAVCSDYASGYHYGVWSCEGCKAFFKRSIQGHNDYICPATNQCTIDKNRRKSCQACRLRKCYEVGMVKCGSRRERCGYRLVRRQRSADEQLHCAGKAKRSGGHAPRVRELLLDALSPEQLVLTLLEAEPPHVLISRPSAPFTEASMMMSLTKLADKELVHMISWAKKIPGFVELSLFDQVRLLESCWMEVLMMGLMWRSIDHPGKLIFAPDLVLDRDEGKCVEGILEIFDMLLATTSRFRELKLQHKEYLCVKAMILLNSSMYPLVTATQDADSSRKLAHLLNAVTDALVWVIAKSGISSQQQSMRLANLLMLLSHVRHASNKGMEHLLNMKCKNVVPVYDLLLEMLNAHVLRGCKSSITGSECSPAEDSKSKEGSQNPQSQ

ERα [2] = target: T2, ERα (Homo sapiens, UniProt P03372); format: binding
T2 sequence (P03372 1-595): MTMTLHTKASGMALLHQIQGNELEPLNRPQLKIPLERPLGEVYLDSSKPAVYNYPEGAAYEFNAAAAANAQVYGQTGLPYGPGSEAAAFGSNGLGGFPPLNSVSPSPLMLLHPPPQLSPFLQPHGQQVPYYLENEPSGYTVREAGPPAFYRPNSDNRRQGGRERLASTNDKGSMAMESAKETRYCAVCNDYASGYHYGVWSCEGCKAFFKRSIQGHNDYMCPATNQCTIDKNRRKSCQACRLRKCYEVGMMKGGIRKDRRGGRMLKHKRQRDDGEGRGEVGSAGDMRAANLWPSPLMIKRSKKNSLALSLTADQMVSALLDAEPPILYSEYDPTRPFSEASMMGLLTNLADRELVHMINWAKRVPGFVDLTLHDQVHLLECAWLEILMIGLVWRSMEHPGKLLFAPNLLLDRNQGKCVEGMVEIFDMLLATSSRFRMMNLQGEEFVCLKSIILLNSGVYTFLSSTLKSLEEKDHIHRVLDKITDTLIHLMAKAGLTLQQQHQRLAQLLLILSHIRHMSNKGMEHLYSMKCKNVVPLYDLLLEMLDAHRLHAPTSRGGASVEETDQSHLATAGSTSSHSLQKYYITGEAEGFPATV

full length ERβ = full length ERβ (Homo sapiens, UniProt Q92731); assay: ERE-luciferase transactivation in HeLa cells, full length ERβ; format: cell-based
full length ERβ, sequence (Q92731 whole entry): as the sequence (Q92731 whole entry) above

LNCaP cells = assay: LNCaP cell proliferation; format: cell-based; details: 1 μM final concentration, 24 h treatment
ERβ [3] = target: T1, ERβ; details: radioligand binding assay; cited from earlier work
[4] = Phase II double-blind clinical trial; cited from earlier work
GAL4 DBD-ERβ LBD = GAL4 DBD-ERβ LBD (Homo sapiens, UniProt Q92731); assay: GAL4 transactivation assay in HEK293T cells; format: cell-based
GAL4 DBD-ERβ LBD, sequence (Q92731 264-498 limits assumed): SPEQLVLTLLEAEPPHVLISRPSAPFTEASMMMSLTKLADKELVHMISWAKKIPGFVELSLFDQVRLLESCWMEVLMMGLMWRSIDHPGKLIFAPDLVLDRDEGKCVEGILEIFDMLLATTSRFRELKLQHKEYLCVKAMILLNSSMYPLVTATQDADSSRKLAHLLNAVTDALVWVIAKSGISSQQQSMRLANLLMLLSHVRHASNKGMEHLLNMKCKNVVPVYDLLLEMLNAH

ERβ [5] = target: T1, ERβ; details: cited from earlier work
ERβ [6] = target: T1, ERβ; details: transiently transfected MCF-7 cells; cited from earlier work
ERα [7] = target: T2, ERα; details: transiently transfected MCF-7 cells; cited from earlier work

## C[C@]12CC[C@H](O)CC1=CC[C@@H]1[C@@H]2CC[C@]2(C)C(=O)CC[C@@H]12 [DHEA, dehydroepiandrosterone]
His6-hERβ LBD
  Tm of His6-hERβ LBD purification product: ~ 55 ºC
  DSF primary screen: change in melting temperature of ERβ LBD: putative binders
ERβ [1]
  Binding to ERβ in FP (competition with fluorescein labeled E2), result in words: binders
  β-selectivity (fold): greater than 2 fold
ERα [2]
  Binding to ERα in FP (competition with fluorescein labeled E2), result in words: binders
Full length ERβ; 1 μM final concentration
  Relative transactivation activity, full length ERβ: greater capacity for ERβ activation than the selective partial agonist 27-hydroxycholesterol
Full length ERβ; full length ERs, 1 μM
  ER subtype selectivity of transactivation (ERβ versus ERα): strong ERβ selectivity
LNCaP cells
  LNCaP cell proliferation (cell viability): Suppression of proliferation
ERβ [3]
  Ki for ERβ compared with ERα: lower for ERβ than ERα

## Cc1c2oc3c(C)ccc(C(=O)N[C@@H]4C(=O)N[C@H](C(C)C)C(=O)N5CCC[C@H]5C(=O)N(C)CC(=O)N(C)[C@@H](C(C)C)C(=O)O[C@@H]4C)c3nc-2c(C(=O)N[C@@H]2C(=O)N[C@H](C(C)C)C(=O)N3CCC[C@H]3C(=O)N(C)CC(=O)N(C)[C@@H](C(C)C)C(=O)O[C@@H]2C)c(N)c1=O [dactinomycin] (I: T[dV]P[Sar][NMeV] / II: T[dV]P[Sar][NMeV]; ester I:1-I:C, II:1-II:C; linker I:N-II:N via Actinocin(9to1))
His6-hERβ LBD
  DSF primary screen: change in melting temperature of ERβ LBD: elicited changes in the protein melting temperature

## C[C@]12CC[C@H]3C(=CCc4cc(O)ccc43)[C@@H]1CCC2=O [equilin]
His6-hERβ LBD
  DSF primary screen: change in melting temperature of ERβ LBD: putative binders

## C=Cc1cc(O)cc2nc(-c3ccc(O)c(F)c3)oc12 [ERB-041]
[4]
  Efficacy in rheumatoid arthritis: failed to demonstrate efficacy

## C[C@]12CC[C@@H]3c4ccc(O)cc4CC[C@H]3[C@@H]1C[C@@H](O)[C@@H]2O [estriol]
ERβ [1]
  Binding to ERβ in FP (competition with fluorescein labeled E2), result in words: binders; also recorded: greater relative affinity than estrone

## C[C@@H]1[C@H](O)[C@@H](C)/C=C/C=C/CC/C=C/C=C/C=C/C=C/C(O[C@H]2O[C@H](C)[C@@H](O)[C@H](N)[C@@H]2O)CC2O[C@](O)(CC(O)C(O)CCC(O)CC(O)CC(O)CC(=O)O[C@H]1C)CC(O)C2C(=O)O (some centres unmarked) [nystatin]
His6-hERβ LBD
  DSF primary screen: change in melting temperature of ERβ LBD: elicited changes in the protein melting temperature

## O=C1C[C@@H](c2ccc(O)cc2)Oc2cc(O)cc(O)c21 [naringenin]
His6-hERβ LBD
  DSF primary screen: change in melting temperature of ERβ LBD: putative binders
ERβ [1]
  β-selectivity (fold): greater than 2 fold

## CCN(CC)CCOc1ccc(C(=C(Cl)c2ccccc2)c2ccccc2)cc1 [clomiphene citrate]
His6-hERβ LBD
  DSF primary screen: change in melting temperature of ERβ LBD: putative binders
ERβ [1]
  Binding to ERβ in FP (competition with fluorescein labeled E2), result in words: binders
GAL4 DBD-ERβ LBD
  IC50: 221 nM

## C[C@]12CC[C@H]3[C@@H](CC=C4C[C@@H](O)CC[C@@]43C)[C@@H]1CC[C@@H]2O [5-androstenediol]
ERβ [5]
  ER subtype selectivity: ERβ selective

## COc1cc(/C=C/c2ccc(O)cc2)cc(OC)c1 [pterostilbene]
His6-hERβ LBD
  DSF primary screen: change in melting temperature of ERβ LBD: putative binders

## C#C[C@]1(O)CC[C@H]2[C@@H]3CCc4cc(O)ccc4[C@H]3CC[C@@]21C [ethinyl estradiol]
His6-hERβ LBD
  DSF primary screen: change in melting temperature of ERβ LBD: putative binders

## goserelin acetate
His6-hERβ LBD
  DSF primary screen: change in melting temperature of ERβ LBD: elicited changes in the protein melting temperature

## CCOC(=O)C1=C(C)NC(C)=C(C(=O)OC)C1c1cccc(Cl)c1Cl (centres unmarked) [felodipine]
His6-hERβ LBD
  DSF primary screen: change in melting temperature of ERβ LBD: showed up as hits in the primary assay

## CC[C@H](c1ccc(O)cc1)[C@@H](CC)c1ccc(O)cc1 [hexestrol, reference compound]
His6-hERβ LBD
  DSF primary screen: change in melting temperature of ERβ LBD: putative binders
ERβ [1]
  Binding to ERβ in FP (competition with fluorescein labeled E2), result in words: binders
ERα [2]
  Binding to ERα in FP (competition with fluorescein labeled E2), result in words: binders
ERβ [3]
  Ki for ERβ compared with ERα: the same for both isoforms

## C[C@@H](CO)CCC[C@@H](C)[C@H]1CC[C@H]2[C@@H]3CC=C4C[C@@H](O)CC[C@]4(C)[C@H]3CC[C@]12C [27-hydroxycholesterol, reference compound]
LNCaP cells
  LNCaP cell proliferation (cell viability): Suppression of proliferation

## O=c1cc(-c2ccc(O)c(O)c2)oc2cc(O)cc(O)c12 [luteolin]
ERβ [1]
  β-selectivity (fold): greater than 2 fold
ERβ [6]
  Activation of ERβ: very slight effect on ERβ
ERα [7]
  Activation of ERα: no effect on ERα

## CC/C(=C(/CC)c1ccc(O)cc1)c1ccc(O)cc1 [diethylstilbestrol, reference compound]
ERβ [1]
  Binding to ERβ in FP (competition with fluorescein labeled E2), result in words: binders

## c1ccc2c(Cc3c[nH]c4ccccc34)c[nH]c2c1 [3,3’-diindolylmethane]
ERβ [5]
  Selectivity of binding to ERβ: did not bind selectively to ERβ

## medicarpin
ERβ [1]
  β-selectivity (fold): greater than 2 fold

## CCCCCC[C@H]1C(=O)O[C@H](C)[C@H](NC(=O)c2cccc(NC=O)c2O)C(=O)O[C@@H](C)[C@@H]1OC(=O)CC(C)C [antimycin A]
His6-hERβ LBD
  DSF primary screen: change in melting temperature of ERβ LBD: elicited changes in the protein melting temperature

## CC[C@]1(O)CC[C@H]2[C@@H]3CCC4=CCCC[C@@H]4[C@H]3CC[C@@]21C [ethylestrenol]
His6-hERβ LBD
  DSF primary screen: change in melting temperature of ERβ LBD: putative binders

## C[C@H]1CCC[C@H](O)CCCCCc2cc(O)cc(O)c2C(=O)O1 [zeranol]
ERα [2]
  Binding to ERα in FP (competition with fluorescein labeled E2), result in words: binders
